Test results from patent publication US20190054067A1, “COMPOSITIONS AND METHODS FOR TREATING COMPULSIVE-LIKE BEHAVIOR IN A SUBJECT” (UNIVERSITY OF THE SCIENCES, priority 2016, published 2019).

Assays:
[1] = system: compulsive-like BIG male mice; settings: compulsive-like BIG mice (Greene-Schloesser et al., 2011); cited from earlier work
[2] = system: compulsive-like BIG mice; settings: cited from earlier work
[3] = system: compulsive-like BIG male mice; settings: compulsive-like BIG mice (Greene-Schloesser et al., 2011); cited from earlier work; remark: listed apart in the source
[4] = molecular target: high sensitivity (HS) α4β2 receptors (Homo sapiens, UniProt P17787+P43681); settings: cited from earlier work
[5] = system: compulsive-like BIG male mice; experiment: compulsive-like nest building (NB) behavior; assay type: in vivo, Mus musculus; settings: for overall nesting scores vs control (saline) / overall nesting scores vs control: 0-24 h; for suppression of NB vs control: chronic (daily s.c., tested day 30); for overall nesting scores vs control: chronic; for effect on NB (ANOVA over dose groups): chronic, 2, 4 and 6 mg/kg groups
Procedure: (§1) Compulsive-like BIG male mice, Mus musculus, were raised on wood shavings in polypropylene cages (27×17×12 cm) under controlled temperature (22±1° C.) and light (12:12 light-dark cycle) with free access to food (Purina Mills, Lab Diet Mouse Diet #5015, St. Louis, Mo.) and water. Animals were approximately 12-16 weeks of age at the start of each experiment.
(§2) Deformylflustrabromine hydrochloride (dFBr; Abcam Biochemicals) was dissolved in physiological saline (pH=6.7) to yield final doses of 2.0 mg/kg (0.27 mg/mL), 4 mg/kg (0.53 mg/mL) and 6 mg/kg (0.80 mg/mL). Saline was used as a vehicle control (0 mg/kg). A mouse of 40 g received an injection volume of 0.3 mL. Injection volumes were proportionally adjusted according to the body weight of individual animals.
(§3) Acute Study: Male BIG mice were divided into four treatment groups comprising vehicle (sterile saline), 2 mg/kg, 4 mg/kg and 6 mg/kg. Animals in each group (n=12 per group) were tested for nesting on day 1, MB on day 3 and open field (OF) on day 5. On the first day of testing animals randomly received dFBr or vehicle subcutaneously and in subsequent tests received the same dose. Days 2 and 4 were employed to avoid any residual effects of dFBr from previous administration. For nesting, data were collected after 1, 2, 3, 4, 5 and 24 h due to the progressive nature of the NB (The BIG mice typically get excited and indulge in excessive and repetitive NB when introduced to cotton for the first 3-4 h in the light cycle. This excessive and repetitive nesting activity resumes again in the dark cycle). MB and OF behavior was performed 2 h after dFBr administration (FIG. 1).
(§4) Chronic Study; Since the foundation of the animal model was established through effective reversal of compulsive-like NB and MB behaviors by chronic fluoxetine treatment, a chronic regimen was also conducted to establish the sustained and long term effects of dFBr on NB and MB. Animals belonging to 0, 2, 4 and 6 mg/kg dose group (n=12 per group) received single subcutaneous injection of dFBr or saline daily for 32 days. NB, MB and OF behaviors were assessed in the final week (weeks 5) after dFBr administration (NB after 1, 2, 3, 4, 5 and 24 h, and MB after 2 h of drug injection). NB was performed on day 30, MB on day 31 and OF on day 32 (FIG. 1).
Nest-building behavior was performed to assess compulsive-like behavior in the mice. For both acute and chronic studies, immediately following subcutaneous injection of dFBr, compulsive-like male mice were singly housed and provided with a pre-weighed roll of cotton (Mountain Mist cotton batting, Troy, Inc., Chicago, Ill.) in the cage-top food hopper. The cotton roll was weighed after 1, 2, 3, 4, 5 and 24 hours. Nesting behavior was quantified by the grams of cotton used during each testing period.
(§5) Statistical analysis was performed in Graphpad Prism (GraphPad Software, Inc) and Statistical Analysis System Software (Version 9.4, Cary, N.C.). Nest-building (grams of cotton), marble burying (number of marbles at least ⅔ buried) and open field measures (time in center and total distance travelled) were expressed as the mean±standard error of the mean (SEM). The nest building data were shown as grams of cotton used, whereas the statistical analysis was conducted on the square-root transformed nesting scores in order to normalize the data (Bult & Lynch, 2000, Behavior Genetics 30:193-206). Nesting scores at different time points, marble burying and open field results were analyzed by one-way analysis of variance (ANOVA), whereas overall drug and drug by time interaction effect between 0-5 hours was done by two-way analysis of variance (ANOVA). Pairwise comparisons for significant differences were tested by the post-hoc Bonferroni multiple comparison test. A probability level of p<0.05 was used as an index of statistical significance in all cases.

[6] = system: compulsive-like BIG male mice; experiment: open field (OF) test, anxiety-like and locomotor behavior; assay type: in vivo, Mus musculus
Procedure: as §1, §2
Acute Study: Male BIG mice were divided into four treatment groups comprising vehicle (sterile saline), 2 mg/kg, 4 mg/kg and 6 mg/kg. Animals in each group (n=12 per group) were tested for nesting on day 1, MB on day 3 and open field (OF) on day 5. On the first day of testing animals randomly received dFBr or vehicle subcutaneously and in subsequent tests received the same dose. Days 2 and 4 were employed to avoid any residual effects of dFBr from previous administration. […]
as §4, with “Animals belonging to 0, 2, 4 and 6 mg/kg dose group (n=12 per group) received single subcutaneous injection of dFBr or saline daily for 32 days.” left out, “NB was performed on day 30, MB on day 31 and OF on day 32 (FIG. 1).” left out
Anxiety-like behaviors were determined through the open field test. […] The animals were placed in the center of the open field, and their behavior was video taped for 3 min and analyzed with the aid of ANYMAZE™ video tracking software (Stoelting Co., Ill.). The time spent in the center (anxiety-like measure) and total distance travelled (locomotion) in the entire open field were measured. […]
Statistical analysis was performed in Graphpad Prism (GraphPad Software, Inc) and Statistical Analysis System Software (Version 9.4, Cary, N.C.). Nest-building (grams of cotton), marble burying (number of marbles at least ⅔ buried) and open field measures (time in center and total distance travelled) were expressed as the mean±standard error of the mean (SEM). […] Nesting scores at different time points, marble burying and open field results were analyzed by one-way analysis of variance (ANOVA), whereas overall drug and drug by time interaction effect between 0-5 hours was done by two-way analysis of variance (ANOVA). […]

[7] = cited from earlier work
[8] = molecular target: low sensitivity (LS) α4β2 receptors (Homo sapiens, UniProt P17787+P43681); settings: cited from earlier work
[9] = system: compulsive-like BIG male mice; experiment: compulsive-like marble burying (MB) behavior; assay type: in vivo, Mus musculus; settings: for marble-burying behavior (marbles at least 2/3 buried) vs control: acute, 2 h after administration; for suppression of MB vs control: chronic, fifth week (day 31), 2 h after injection
Procedure: as §1, §2, §3, §4
The marble-burying test is an effective test for determining compulsive-like behavior in mice. […] Two hours after dFBr administration, compulsive-like male mice were individually introduced to a polypropylene cage (37×21×14 cm) containing 20 glass marbles (10 mm in diameter) evenly spaced on 5 cm deep wood chip bedding without access to food or water for 20 min. Testing was carried out in the testing room separate from the housing room. The total number of marbles buried at least ⅔ in the 20-min period was quantified as compulsive-like digging behavior. After the 20-min test, the animals were returned to their home cages.
as §5

[10] = acute, 0, 2, 4, 6 mg/kg s.c., 2 h after administration
[11] = chronic regimen (day 32), 0, 2, 4, 6 mg/kg

Chain of low sensitivity (LS) α4β2 receptors (P43681 29-627 limits assumed): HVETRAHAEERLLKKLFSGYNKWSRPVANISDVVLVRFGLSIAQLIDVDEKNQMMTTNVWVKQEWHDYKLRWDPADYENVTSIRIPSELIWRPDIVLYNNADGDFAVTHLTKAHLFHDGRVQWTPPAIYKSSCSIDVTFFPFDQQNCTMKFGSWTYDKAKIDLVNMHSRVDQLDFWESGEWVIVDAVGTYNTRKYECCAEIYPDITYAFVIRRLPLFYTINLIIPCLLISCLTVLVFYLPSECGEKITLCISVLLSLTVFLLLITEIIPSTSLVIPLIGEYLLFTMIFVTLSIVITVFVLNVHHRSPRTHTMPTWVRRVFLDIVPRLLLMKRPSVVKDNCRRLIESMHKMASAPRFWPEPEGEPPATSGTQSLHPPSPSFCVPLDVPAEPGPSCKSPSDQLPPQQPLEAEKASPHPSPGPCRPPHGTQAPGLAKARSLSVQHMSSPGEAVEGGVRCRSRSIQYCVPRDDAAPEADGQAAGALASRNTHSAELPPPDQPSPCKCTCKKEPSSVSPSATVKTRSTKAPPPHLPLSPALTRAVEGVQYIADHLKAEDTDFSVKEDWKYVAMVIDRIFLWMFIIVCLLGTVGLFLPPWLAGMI
Chain of low sensitivity (LS) α4β2 receptors (P17787 26-502): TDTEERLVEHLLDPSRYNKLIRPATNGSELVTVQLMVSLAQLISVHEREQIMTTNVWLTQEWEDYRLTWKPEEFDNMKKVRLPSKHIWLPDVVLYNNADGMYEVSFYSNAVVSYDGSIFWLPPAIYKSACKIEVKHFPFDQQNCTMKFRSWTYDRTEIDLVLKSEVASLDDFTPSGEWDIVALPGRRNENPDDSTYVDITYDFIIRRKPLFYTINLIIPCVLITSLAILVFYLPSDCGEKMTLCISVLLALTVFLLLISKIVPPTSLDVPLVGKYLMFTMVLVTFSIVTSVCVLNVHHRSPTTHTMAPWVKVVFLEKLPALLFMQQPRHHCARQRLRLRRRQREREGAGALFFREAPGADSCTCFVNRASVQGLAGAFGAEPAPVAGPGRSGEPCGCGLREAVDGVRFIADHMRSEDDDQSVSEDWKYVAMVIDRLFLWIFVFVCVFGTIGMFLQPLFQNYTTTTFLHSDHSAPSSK
Chain of high sensitivity (HS) α4β2 receptors (P43681 29-627 limits assumed): as the sequence (P43681 29-627 limits assumed) above
Chain of high sensitivity (HS) α4β2 receptors (P17787 26-502): as the sequence (P17787 26-502) above

CNCCC(Oc1ccc(C(F)(F)F)cc1)c1ccccc1 (centres unmarked) [fluoxetine]
NB behavior [1]: significantly attenuated
overall wheel-running locomotion [2]: failed to reduce
MB behavior [3]: significantly attenuated

C=CC(C)(C)c1[nH]c2cc(Br)ccc2c1CCNC [dFBr, 2-[6-bromo-2-(2-methylbut-3-en-2-yl)-1H-indol-3-yl]-N-methylethanamine]
potentiation of acetylcholine-induced whole cell responses [4]: 370%
EC50 ([4]; read-out: EC50 of potentiation): 40 µM
nesting (cotton used) vs control (saline) ([5]; acute, 2 mg/kg s.c., 0-1 h): no significant attenuation of nesting
overall nesting scores vs control (saline) ([5]; acute, 2 mg/kg s.c.): significantly below the control group
nesting (cotton used) vs control (saline) ([5]; acute, 2 mg/kg s.c., 1-2 h): no significant effect
nesting (cotton used) vs control (saline) ([5]; acute, 2 mg/kg s.c., 2-3 h): No significant difference
nesting (cotton used) vs control (saline) ([5]; acute, 2 mg/kg s.c., 3-4 h): not significantly different
nesting (cotton used) vs control (saline) ([5]; acute, 2 mg/kg s.c., 4-5 h): not significantly different
nesting (cotton used) vs control (saline) ([5]; acute, 2 mg/kg s.c., 5-24 h): suppressed the nesting score significantly
fractional nesting score (nesting score divided by average of vehicle group) ([5]; acute, 2 mg/kg s.c., first 5 hours): ~1
nesting (cotton used) vs control (saline) ([5]; acute, 2 mg/kg s.c., overall 0-5 h): did not attenuate nesting
time of greatest suppression of nesting (fractional nesting score) ([5]; acute, 4 mg/kg s.c.): 1 to 2 h
nesting (cotton used) vs control (saline) ([5]; acute, 4 mg/kg s.c., 0-1 h): no significant attenuation of nesting
overall nesting scores vs control (saline) ([5]; acute, 4 mg/kg s.c.): significantly below the control group
nesting (cotton used) vs control (saline) ([5]; acute, 4 mg/kg s.c., 1-2 h): significantly attenuated nesting
nesting (cotton used) vs control (saline) ([5]; acute, 4 mg/kg s.c., 2-3 h): No significant difference
nesting (cotton used) vs control (saline) ([5]; acute, 4 mg/kg s.c., 3-4 h): significantly reduced
nesting (cotton used) vs control (saline) ([5]; acute, 4 mg/kg s.c., 4-5 h): not significantly different
nesting (cotton used) vs control (saline) ([5]; acute, 4 mg/kg s.c., 5-24 h): suppressed the nesting score significantly
nesting (cotton used) vs control (saline) ([5]; acute, 4 mg/kg s.c., overall 0-5 h): significantly reduced
time of greatest suppression of nesting (fractional nesting score) ([5]; acute, 6 mg/kg s.c.): 1 to 2 h
nesting (cotton used) vs control (saline) ([5]; acute, 6 mg/kg s.c., 0-1 h): no significant attenuation of nesting
overall nesting scores vs control (saline) ([5]; acute, 6 mg/kg s.c.): significantly below the control group
nesting (cotton used) vs control (saline) ([5]; acute, 6 mg/kg s.c., 1-2 h): significantly attenuated nesting
nesting (cotton used) vs control (saline) ([5]; acute, 6 mg/kg s.c., 2-3 h): significantly reduced
nesting (cotton used) vs control (saline) ([5]; acute, 6 mg/kg s.c., 3-4 h): significantly reduced
nesting (cotton used) vs control (saline) ([5]; acute, 6 mg/kg s.c., 4-5 h): not significantly different
nesting (cotton used) vs control (saline) ([5]; acute, 6 mg/kg s.c., 5-24 h): suppressed the nesting score significantly
nesting (cotton used) vs control (saline) ([5]; acute, 6 mg/kg s.c., overall 0-5 h): significantly reduced
suppression of NB vs control ([5]; 2 mg/kg, 1-2 h): main attenuating effects
suppression of NB vs control ([5]; 4 mg/kg, 0-1 h): most effective doses
suppression of NB vs control ([5]; 6 mg/kg, 0-1 h): most effective doses
suppression of NB vs control ([5]; 6 mg/kg, 1-2 h): main attenuating effects
overall nesting scores vs control ([5]; 2 mg/kg): significantly below the control group
overall nesting scores vs control ([5]; 4 mg/kg): significantly below the control group
overall nesting scores vs control ([5]; 6 mg/kg): significantly below the control group
effect on NB (ANOVA over dose groups) ([5]; 2-3 h): No significant effect
effect on NB (ANOVA over dose groups) ([5]; 3-4 h): No significant effect
effect on NB (ANOVA over dose groups) ([5]; 4-5 h): No significant effect
time spent in center of the OF (anxiety-like) [6, 10]: No significant differences
total distance traveled (locomotor activity) [6, 10]: not different among the treatment groups
time in center [6, 11]: did not differ among treatment groups
total distance [6, 11]: did not differ among treatment groups
amount reaching the cerebrospinal fluid ([7]; after 90 min of subcutaneous administration): around 36%
time of peak levels in the cerebrospinal fluid ([7]; rats, after administration): 90 min
potentiation of acetylcholine-induced whole cell responses [8]: 260%
EC50 ([8]; read-out: EC50 of potentiation): 2.5 µM
marble-burying behavior (marbles at least 2/3 buried) vs control ([9]; 2 mg/kg s.c.): decreased marble-burying behavior
marble-burying behavior (marbles at least 2/3 buried) vs control ([9]; 4 mg/kg s.c.): decreased marble-burying behavior
marble-burying behavior (marbles at least 2/3 buried) vs control ([9]; 6 mg/kg s.c.): decreased marble-burying behavior
reduction of MB behavior vs control ([9]; chronic regimen, 2 mg/kg, 2 h time point): not significant
suppression of MB vs control ([9]; 4 mg/kg): maximum suppression of MB
suppression of MB vs control ([9]; 6 mg/kg): maximum suppression of MB
